# According to ChEMBL document CHEMBL1147574, “Synthesis of a novel peptidic photoaffinity probe for the PTP-1B enzyme” (Bioorg Med Chem Lett, 2004):
# What was measured:
# [1] = Percent adduct formed by co-valent binding to the enzyme was assessed by irradiating a solution of the photoprobe and the PTP1B enzyme with a 40W lamp
# [2] = Inhibitory activity of compound against phosphotyrosine phosphatase-1B
SMILES,Adduct formation [1] [%],IC50 [2] [nM]
NC(=O)[C@H](Cc1ccc(C(F)(F)P(=O)(O)O)cc1)NC(=O)[C@H](Cc1cc(Br)cc(C2(C(F)(F)F)N=N2)c1)NC(=O)c1cc(Br)cc(C2(C(F)(F)F)N=N2)c1,< 5,15
NC(=O)[C@H](Cc1ccc(C(F)(F)P(=O)(O)O)cc1)NC(=O)[C@H](Cc1ccc(C(F)(F)P(=O)(O)O)cc1)NC(=O)[C@H](CCC(=O)O)NCc1cc(Br)cc(C2(C(F)(F)F)N=N2)c1,5,3
NC(=O)[C@H](Cc1ccc(C(F)(F)P(=O)(O)O)cc1)NC(=O)[C@H](Cc1ccc(C(F)(F)P(=O)(O)O)cc1)NC(=O)c1cc(Br)cc(C2(C(F)(F)F)N=N2)c1,–,12
NC(=O)[C@H](Cc1ccc(C(F)(F)P(=O)(O)O)cc1)NC(=O)[C@H](Cc1ccc(C(F)(F)P(=O)(O)O)cc1)NC(=O)[C@H](CCC(=O)O)NC(=O)c1cc(Br)cc(C2(C(F)(F)F)N=N2)c1,8,14
NC(=O)[C@H](Cc1ccc(C(F)(F)P(=O)(O)O)c(Br)c1)NC(=O)[C@H](Cc1ccc(C(F)(F)P(=O)(O)O)c(Br)c1)NC(=O)c1cc(I)cc(C2(C(F)(F)F)N=N2)c1,8,4
NC(=O)[C@H](Cc1ccc(C(F)(F)P(=O)(O)O)cc1)NC(=O)c1cc(Br)cc(C2(C(F)(F)F)N=N2)c1,–,9500
NC(=O)[C@H](Cc1ccc(C(F)(F)P(=O)(O)O)cc1)NC(=O)[C@H](Cc1ccc(C(F)(F)P(=O)(O)O)cc1)NC(=O)c1cc(I)cc(C2(C(F)(F)F)N=N2)c1,8,9
NC(=O)[C@H](Cc1ccc(C(F)(F)P(=O)(O)O)cc1)NC(=O)[C@H](Cc1ccc(C(F)(F)P(=O)(O)O)cc1)NCc1cc(Br)cc(C2(C(F)(F)F)N=N2)c1,–,1700
NC(=O)[C@H](Cc1ccc(C(F)(F)P(=O)(O)O)c(Br)c1)NC(=O)[C@H](Cc1ccc(C(F)(F)P(=O)(O)O)c(Br)c1)NC(=O)c1cc(Br)cc(C2(C(F)(F)F)N=N2)c1,6,0.3
